# pIC50: −log10 of the molar value. Where two headings read alike, the source gives them in different places.
# Tests used:
# PRC2 enzyme = PRC2 enzyme (Homo sapiens (Human), UniProt O75530); assay: PRC2 enzyme activity, TR-FRET method; type: biochemical
# Procedure: The TR-FRET method was used to measure the PRC2 enzyme activity. First, the enzyme was mixed with compounds at different concentrations and incubated for 30 min at room temperature. The biotin-labeled histone H3 peptide substrate and the cofactor S-adenosylmethionine (SAM) were added to initiate the enzymatic reaction. After reaction was performed at room temperature for 4 hour, Acceptor and Donor were added and incubated for half an hour. The multifunctional microplate reader EnVision (Perkin Elmer Inc.) was used to detect the fluorescence signal. Data were analyzed using GraphPad Prism 5.0 software, and IC50 values were obtained.
# Pfeiffer cells = assay: Pfeiffer cell growth inhibition in a long term (11 days), CellTiter-Glo; type: cell-based, Human; details: Homo sapiens, 264 h, read-out: Experiment on Pfeiffer cell growth inhibition in a long term (11 days IC50)
# Procedure: Pfeiffer cells in exponential growth phase were seeded in a 24-well plate with a cell density of 1*10E5 cells/mL. Cells were treated on the same day with the compounds at different concentrations. At day 4 and day 7 of compound treatment, fresh media and compounds were changed. After treated with the compounds for 11 days, cell viability was measured using CellTiter-Glo reagent (Promega Corporation). The data was analyzed using GraphPad Prism 5.0 software and GI50 values were obtained.
# PRC2 enzyme, sequence (O75530 whole entry): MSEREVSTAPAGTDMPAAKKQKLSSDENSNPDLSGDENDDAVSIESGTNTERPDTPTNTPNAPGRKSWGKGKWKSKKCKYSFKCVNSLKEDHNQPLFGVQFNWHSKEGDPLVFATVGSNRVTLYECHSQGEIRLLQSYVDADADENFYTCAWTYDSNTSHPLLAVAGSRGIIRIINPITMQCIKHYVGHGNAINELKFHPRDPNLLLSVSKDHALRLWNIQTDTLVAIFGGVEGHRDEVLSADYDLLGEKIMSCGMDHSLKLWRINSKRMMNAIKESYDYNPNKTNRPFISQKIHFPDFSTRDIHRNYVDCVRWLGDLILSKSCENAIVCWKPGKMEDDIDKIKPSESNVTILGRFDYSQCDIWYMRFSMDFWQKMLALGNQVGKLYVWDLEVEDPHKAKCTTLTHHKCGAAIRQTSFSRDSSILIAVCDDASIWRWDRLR
# PRC2 enzyme, sequence (Q15910 whole entry partner): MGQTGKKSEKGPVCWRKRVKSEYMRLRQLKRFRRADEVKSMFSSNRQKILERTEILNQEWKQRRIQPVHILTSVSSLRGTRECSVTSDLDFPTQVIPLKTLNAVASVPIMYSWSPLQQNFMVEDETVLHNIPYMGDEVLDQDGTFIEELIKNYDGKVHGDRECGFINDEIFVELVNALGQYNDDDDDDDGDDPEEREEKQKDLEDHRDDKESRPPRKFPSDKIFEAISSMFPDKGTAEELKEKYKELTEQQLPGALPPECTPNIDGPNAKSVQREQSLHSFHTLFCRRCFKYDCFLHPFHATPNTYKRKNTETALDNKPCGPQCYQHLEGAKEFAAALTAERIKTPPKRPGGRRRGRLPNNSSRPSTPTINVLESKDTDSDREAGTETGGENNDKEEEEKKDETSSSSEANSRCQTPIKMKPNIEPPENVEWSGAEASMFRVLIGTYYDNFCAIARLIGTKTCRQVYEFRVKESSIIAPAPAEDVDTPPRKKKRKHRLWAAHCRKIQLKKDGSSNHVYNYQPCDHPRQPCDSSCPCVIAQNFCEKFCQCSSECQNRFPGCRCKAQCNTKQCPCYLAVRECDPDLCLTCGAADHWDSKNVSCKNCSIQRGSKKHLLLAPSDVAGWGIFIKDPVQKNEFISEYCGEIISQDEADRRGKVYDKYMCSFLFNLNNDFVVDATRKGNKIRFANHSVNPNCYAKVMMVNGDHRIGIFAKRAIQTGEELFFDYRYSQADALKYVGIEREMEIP
# PRC2 enzyme, sequence (Q15022 whole entry partner): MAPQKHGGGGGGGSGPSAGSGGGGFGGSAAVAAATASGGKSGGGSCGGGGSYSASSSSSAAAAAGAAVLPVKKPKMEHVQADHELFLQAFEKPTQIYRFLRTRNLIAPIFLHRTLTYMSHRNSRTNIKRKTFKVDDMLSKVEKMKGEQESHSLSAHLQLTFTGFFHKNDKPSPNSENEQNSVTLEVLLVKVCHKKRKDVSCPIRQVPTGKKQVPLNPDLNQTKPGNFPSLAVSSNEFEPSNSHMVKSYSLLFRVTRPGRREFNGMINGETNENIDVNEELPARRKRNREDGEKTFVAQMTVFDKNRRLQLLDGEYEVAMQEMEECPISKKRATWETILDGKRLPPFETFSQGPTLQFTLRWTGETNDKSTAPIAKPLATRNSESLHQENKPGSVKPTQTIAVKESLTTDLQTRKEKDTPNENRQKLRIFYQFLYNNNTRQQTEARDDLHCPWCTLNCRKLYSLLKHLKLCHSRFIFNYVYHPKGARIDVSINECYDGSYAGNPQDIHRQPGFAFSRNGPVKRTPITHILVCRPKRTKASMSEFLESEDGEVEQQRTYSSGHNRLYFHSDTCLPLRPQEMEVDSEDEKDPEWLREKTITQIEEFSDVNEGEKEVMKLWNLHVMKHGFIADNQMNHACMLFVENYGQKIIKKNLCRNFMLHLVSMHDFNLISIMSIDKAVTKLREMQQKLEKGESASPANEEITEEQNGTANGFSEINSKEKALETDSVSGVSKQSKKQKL
Structure (SMILES),pIC50 (PRC2 enzyme),pIC50 (Pfeiffer cells; 11 days),pIC50 (Pfeiffer cells)
Fc1ccc2c(c1CNc1ncc(C3=CCSCC3)c3nncn13)CCO2 [E-Y2],8.10,,
C1=C(c2cnc(NCc3ccco3)n3cnnc23)CCSC1 [E-Y5],6.21,,
CC(C)(C)OC(=O)N1CC=C(c2cnc(NCc3ccco3)n3cnnc23)CC1 [E-Y6],,7.08,
CC(C)(C)OC(=O)NC1CC=C(c2cnc(NCc3ccco3)n3cnnc23)CC1 (stereo not shown) [E-Y9],,6.49,
CS(=O)(=O)N1CCC(c2cnc(NCc3c(F)ccc4c3CCO4)n3cnnc23)CC1 [E-Y13-H],7.97,,
Cc1ccc(S(=O)(=O)N2CC=C(c3cnc(NCc4c(F)ccc5c4CCO5)n4cnnc34)CC2)cc1 [E-Y14],7.00,,
O=C(c1ccccc1)N1CC=C(c2cnc(NCc3c(F)ccc4c3CCO4)n3cnnc23)CC1 [E-Y16],7.75,8.32,
CCNC(=O)N1CC=C(c2cnc(NCc3c(F)ccc4c3CCO4)n3cnnc23)CC1 [E-Y17],,8.57,
CC(C)(C)NC(=O)N1CC=C(c2cnc(NCc3c(F)ccc4c3CCO4)n3cnnc23)CC1 [E-Y18],7.68,8.57,
CCNC(=S)N1CC=C(c2cnc(NCc3c(F)ccc4c3CCO4)n3cnnc23)CC1 [E-Y19],8.03,,8.52
CC(=O)N1CCC(c2cnc(NCc3ccco3)n3cnnc23)CC1 [E-Y20-H],7.03,,
CC(=O)N1CC=C(c2cnc(NCc3ccco3)n3cnnc23)CC1 [E-Y20],6.78,6.80,
O=C(c1ccccc1)N1CC=C(c2cnc(NCc3ccco3)n3cnnc23)CC1 [E-Y21],6.45,6.73,
CS(=O)(=O)N1CC=C(c2cnc(NCc3ccco3)n3cnnc23)CC1 [E-Y22],6.48,,
Cc1ccc(S(=O)(=O)N2CC=C(c3cnc(NCc4ccco4)n4cnnc34)CC2)cc1 [E-Y23],6.46,6.97,
CC(C)(C)NC(=O)N1CC=C(c2cnc(NCc3ccco3)n3cnnc23)CC1 [E-Y25],6.43,,
Cc1ccc(NC(=O)N2CC=C(c3cnc(NCc4ccco4)n4cnnc34)CC2)cc1 [E-Y26],7.04,,
CC(=O)NC1CC=C(c2cnc(NCc3ccco3)n3cnnc23)CC1 (stereo not shown) [E-Y30],6.10,,
O=C(NC1CC=C(c2cnc(NCc3ccco3)n3cnnc23)CC1)c1ccccc1 (stereo not shown) [E-Y31],6.12,,
CS(=O)(=O)NC1CC=C(c2cnc(NCc3ccco3)n3cnnc23)CC1 (stereo not shown) [E-Y32],6.47,,
CC(F)(F)C(=O)N1CC=C(c2cnc(NCc3ccco3)n3cnnc23)CC1 [E-Y34],6.04,,
CN(C)CC(=O)N1CC=C(c2cnc(NCc3ccco3)n3cnnc23)CC1 [E-Y35],6.50,,
O=C(CN1CCOCC1)N1CC=C(c2cnc(NCc3ccco3)n3cnnc23)CC1 [E-Y36],6.27,6.54,
O=C(NC(=S)N1CC=C(c2cnc(NCc3c(F)ccc4c3CCO4)n3cnnc23)CC1)c1ccccc1 [E-Y39],7.26,,
